# Results as given in patent US12435060B2, “Acylamino bridged heterocyclic compound, and composition and application thereof” (BEIJING SCITECH-MQ PHARMACEUTICALS LIMITED, priority 2019, dated 2025).
# System: HT29 cells
# Experiment: Inhibition of cell necrosis (CCK8 method), induced programmed necrosis of HT29 cells
# Assay type: cell-based
# Settings: Homo sapiens, HT-29; rescue from necrosis induced by TNF-α 20 ng/mL, AT-406 1 μM, Z-VAD-FMK 20 μM; 16-20 hours; CCK-8, OD 450 nm
# Procedure, shortened: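 Rescue from programmed necrosis was scored by CCK-8 absorbance at 450 nm after 16-20 h of TNF-α (20 ng/mL), AT-406 (1 μM) and Z-VAD-FMK (20 μM) at 37 °C, 5% CO2. HT29 cells had received compound 30 min earlier across nine 4-fold dilutions (top 25000 nM final). IC50 came from % inhibition relative to uninduced and induced-only wells.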
row,Structure (SMILES),IC50 [nM]
1,"O=C(Nc1cc(-c2cc(OCC3CCOCC3)ccc2F)c(F)cn1)c1nnc(CC2CCCCC2)[nH]1 [Example 328, 5-(cyclohexylmethyl)-N-(5-fluoro-4-(2-fluoro-5-((tetrahydro-2H-pyran-4-yl)methoxy)phenyl)pyridin-2-yl)-4H-1,2,4-triazole-3-carboxamide]",≤ 100
2,"O=C(Nc1cc(-c2cc(OCC3CCOCC3)ccc2F)c(Cl)cn1)c1nnc(Cc2ccccc2F)[nH]1 [Example 329, N-(5-chloro-4-(2-fluoro-5-((tetrahydro-2H-pyran-4-yl)methoxy)phenyl)pyridin-2-yl)-5-(2-fluorobenzyl)-4H-1,2,4-triazole-3-carboxamide]",100 to 1000
3,"O=C(Nc1cc(-c2cc(OCC3CCOCC3)ccc2F)c(Cl)cn1)c1nnc(CC2CCCCC2)[nH]1 [Example 330, 5-(cyclohexylmethyl)-N-(5-chloro-4-(2-fluoro-5-((tetrahydro-2H-pyran-4-yl)methoxy)phenyl)pyridin-2-yl)-4H-1,2,4-triazole-3-carboxamide]",100 to 1000
4,"Cc1cnc(NC(=O)c2nnc(Cc3ccccc3F)[nH]2)cc1-c1cc(OCC2CCOCC2)ccc1F [Example 331, N-(4-(2-fluoro-5-((tetrahydro-2H-pyran-4-yl)methoxy)phenyl)-5-methylpyridin-2-yl)-5-(2-fluorobenzyl)-4H-1,2,4-triazole-3-carboxamide]",1000 to 10000
5,"Cc1cnc(NC(=O)c2nnc(CC3CCCCC3)[nH]2)cc1-c1cc(OCC2CCOCC2)ccc1F [Example 332, 5-(cyclohexylmethyl)-N-(4-(2-fluoro-5-((tetrahydro-2H-pyran-4-yl)methoxy)phenyl)-5-methylpyridin-2-yl)-4H-1,2,4-triazole-3-carboxamide]",1000 to 10000
6,"O=C(Nc1cc(-c2cc(OCCC3CCOCC3)ccc2F)c(Cl)cn1)c1nnc(Cc2ccccc2F)[nH]1 [Example 333, N-(5-chloro-4-(2-fluoro-5-(2-(tetrahydro-2H-pyran-4-yl)ethoxy)phenyl)pyridin-2-yl)-5-(2-fluorobenzyl)-4H-1,2,4-triazole-3-carboxamide]",100 to 1000
7,"O=C(Nc1cc(-c2cc(OCCC3CCOCC3)ccc2F)c(Cl)cn1)c1nnc(CC2CCCCC2)[nH]1 [Example 334, N-(5-chloro-4-(2-fluoro-5-(2-(tetrahydro-2H-pyran-4-yl)ethoxy)phenyl)pyridin-2-yl)-5-(cyclohexylmethyl)-4H-1,2,4-triazole-3-carboxamide]",100 to 1000
8,"Cc1cnc(NC(=O)c2nnc(Cc3ccccc3F)[nH]2)cc1-c1cc(OCCC2CCOCC2)ccc1F [Example 335, N-(4-(2-fluoro-5-(2-(tetrahydro-2H-pyran-4-yl)ethoxy)phenyl)-5-methylpyridin-2-yl)-5-(2-fluorobenzyl)-4H-1,2,4-triazole-3-carboxamide]",1000 to 10000
9,"Cc1cnc(NC(=O)c2nnc(CC3CCCCC3)[nH]2)cc1-c1cc(OCCC2CCOCC2)ccc1F [Example 336, 5-(cyclohexylmethyl)-N-(4-(2-fluoro-5-(2-(tetrahydro-2H-pyran-4-yl)ethoxy)phenyl)-5-methylpyridin-2-yl)-4H-1,2,4-triazole-3-carboxamide]",1000 to 10000
10,"CC(C)(O)CCCOc1ccc(Cl)c(-c2ccnc(NC(=O)c3nnc(Cc4ccccc4)[nH]3)c2)c1 [Example 337, 5-benzyl-N-(4-(5-((4-hydroxy-4-methylpentyl)oxy)-2-chlorophenyl)pyridin-2-yl)-4H-1,2,4-triazole-3-carboxamide]",≤ 100
11,"CC(C)(O)CCCOc1ccc(Cl)c(-c2ccnc(NC(=O)c3nnc(Cc4ccccc4F)[nH]3)c2)c1 [Example 338, N-(4-(2-chloro-5-((4-hydroxy-4-methylpentyl)oxy)phenyl)pyridin-2-yl)-5-(2-fluorobenzyl)-4H-1,2,4-triazole-3-carboxamide]",≤ 100
12,"CC(C)(O)CCCOc1ccc(Cl)c(-c2ccnc(NC(=O)c3nnc(Cc4ccc(F)c(F)c4)[nH]3)c2)c1 [Example 339, N-(4-(2-chloro-5-((4-hydroxy-4-methylpentyl)oxy)phenyl)pyridin-2-yl)-5-(3,4-difluorobenzyl)-4H-1,2,4-triazole-3-carboxamide]",100 to 1000
13,"CC(C)(O)CCCOc1ccc(Cl)c(-c2ccnc(NC(=O)c3nnc(Cc4cc(Cl)ccc4F)[nH]3)c2)c1 [Example 340, 5-(5-chloro-2-fluorobenzyl)-N-(4-(2-chloro-5-((4-hydroxy-4-methylpentyl)oxy)phenyl)pyridin-2-yl)-4H-1,2,4-triazole-3-carboxamide]",100 to 1000
14,"CC(C)(O)CCCOc1ccc(Cl)c(-c2ccnc(NC(=O)c3nnc(Cc4cc(F)cc(Cl)c4)[nH]3)c2)c1 [Example 341, N-(4-(2-chloro-5-((4-hydroxy-4-methylpentyl)oxy)phenyl)pyridin-2-yl)-5-(3-chloro-5-fluorobenzyl)-4H-1,2,4-triazole-3-carboxamide]",100 to 1000
15,"CC(C)(O)CCCOc1ccc(Cl)c(-c2ccnc(NC(=O)c3nnc(Cc4ccc(F)c(Cl)c4)[nH]3)c2)c1 [Example 342, 5-(3-chloro-4-fluorobenzyl)-N-(4-(2-chloro-5-((4-hydroxy-4-methylpentyl)oxy)phenyl)pyridin-2-yl)-4H-1,2,4-triazole-3-carboxamide]",100 to 1000
16,"COc1cc(Cc2nnc(C(=O)Nc3cc(-c4cc(OCCCC(C)(C)O)ccc4Cl)ccn3)[nH]2)ccc1F [Example 343, N-(4-(2-chloro-5-((4-hydroxy-4-methylpentyl)oxy)phenyl)pyridin-2-yl)-5-(4-fluoro-3-methoxybenzyl)-4H-1,2,4-triazole-3-carboxamide]",1000 to 10000
17,"Cc1cc(F)cc(Cc2nnc(C(=O)Nc3cc(-c4cc(OCCCC(C)(C)O)ccc4Cl)ccn3)[nH]2)c1 [Example 344, N-(4-(2-chloro-5-((4-hydroxy-4-methylpentyl)oxy)phenyl)pyridin-2-yl)-5-(3-fluoro-5-methylbenzyl)-4H-1,2,4-triazole-3-carboxamide]",100 to 1000
18,"Cc1cc(Cc2nnc(C(=O)Nc3cc(-c4cc(OCCCC(C)(C)O)ccc4Cl)ccn3)[nH]2)ccc1F [Example 345, N-(4-(2-chloro-5-((4-hydroxy-4-methylpentyl)oxy)phenyl)pyridin-2-yl)-5-(4-fluoro-3-methylbenzyl)-4H-1,2,4-triazole-3-carboxamide]",100 to 1000
19,"CC(C)(O)CCCOc1ccc(Cl)c(-c2ccnc(NC(=O)c3nnc(Cc4cccc(C(F)(F)F)c4F)[nH]3)c2)c1 [Example 346, N-(4-(2-chloro-5-((4-hydroxy-4-methylpentyl)oxy)phenyl)pyridin-2-yl)-5-(2-fluoro-3-(trifluoromethyl)benzyl)-4H-1,2,4-triazole-3-carboxamide]",100 to 1000
20,"CC(C)(O)CCCOc1ccc(Cl)c(-c2ccnc(NC(=O)c3nnc(Cc4cc(C(F)(F)F)ccc4F)[nH]3)c2)c1 [Example 347, N-(4-(2-chloro-5-((4-hydroxy-4-methylpentyl)oxy)phenyl)pyridin-2-yl)-5-(2-fluoro-5-(trifluoromethyl)benzyl)-4H-1,2,4-triazole-3-carboxamide]",100 to 1000
21,"CC(C)(O)CCCOc1ccc(Cl)c(-c2ccnc(NC(=O)c3nnc(Cc4cc(F)cc(C(F)(F)F)c4)[nH]3)c2)c1 [Example 348, N-(4-(2-chloro-5-((4-hydroxy-4-methylpentyl)oxy)phenyl)pyridin-2-yl)-5-(3-fluoro-5-(trifluoromethyl)benzyl)-4H-1,2,4-triazole-3-carboxamide]",1000 to 10000
22,"CC(C)(O)CCCOc1ccc(Cl)c(-c2ccnc(NC(=O)c3nnc(Cc4ccc(F)c(C(F)(F)F)c4)[nH]3)c2)c1 [Example 349, N-(4-(2-chloro-5-((4-hydroxy-4-methylpentyl)oxy)phenyl)pyridin-2-yl)-5-(4-fluoro-3-(trifluoromethyl)benzyl)-4H-1,2,4-triazole-3-carboxamide]",> 10000
23,"CCc1ccc(F)c(Cc2nnc(C(=O)Nc3cc(-c4cc(OCCCC(C)(C)O)ccc4Cl)ccn3)[nH]2)c1 [Example 350, N-(4-(2-chloro-5-((4-hydroxy-4-methylpentyl)oxy)phenyl)pyridin-2-yl)-5-(5-ethyl-2-fluorobenzyl)-4H-1,2,4-triazole-3-carboxamide]",100 to 1000
24,"CC(C)(O)CCCOc1ccc(Cl)c(-c2ccnc(NC(=O)c3nnc(Cc4ccc(F)c(F)c4F)[nH]3)c2)c1 [Example 351, N-(4-(2-chloro-5-((4-hydroxy-4-methylpentyl)oxy)phenyl)pyridin-2-yl)-5-(2,3,4-trifluorobenzyl)-4H-1,2,4-triazole-3-carboxamide]",100 to 1000
25,"CC(C)(O)CCCOc1ccc(Cl)c(-c2ccnc(NC(=O)c3nnc(Cc4cc(F)cc(F)c4F)[nH]3)c2)c1 [Example 352, N-(4-(2-chloro-5-((4-hydroxy-4-methylpentyl)oxy)phenyl)pyridin-2-yl)-5-(2,3,5-trifluorobenzyl)-4H-1,2,4-triazole-3-carboxamide]",100 to 1000
26,"CC(C)(O)CCCOc1ccc(Cl)c(-c2ccnc(NC(=O)c3nnc(Cc4c(F)ccc(F)c4F)[nH]3)c2)c1 [Example 353, N-(4-(2-chloro-5-((4-hydroxy-4-methylpentyl)oxy)phenyl)pyridin-2-yl)-5-(2,3,6-trifluorobenzyl)-4H-1,2,4-triazole-3-carboxamide]",≤ 100
27,"CC(C)(O)CCCOc1ccc(Cl)c(-c2ccnc(NC(=O)c3nnc(Cc4cc(F)c(F)c(F)c4)[nH]3)c2)c1 [Example 354, N-(4-(2-chloro-5-((4-hydroxy-4-methylpentyl)oxy)phenyl)pyridin-2-yl)-5-(3,4,5-trifluorobenzyl)-4H-1,2,4-triazole-3-carboxamide]",100 to 1000
28,"CC(C)(O)CCCOc1ccc(Cl)c(-c2ccnc(NC(=O)c3nnc(Cc4cc(F)c(F)cc4F)[nH]3)c2)c1 [Example 355, N-(4-(2-chloro-5-((4-hydroxy-4-methylpentyl)oxy)phenyl)pyridin-2-yl)-5-(2,4,5-trifluorobenzyl)-4H-1,2,4-triazole-3-carboxamide]",100 to 1000
